According to patent US11504367B2, “Compounds and methods for treating oxalate-related diseases” (OxaluRx, Inc., priority 2019, dated 2022):

What was measured:
[1] = target: recombinant full-length human hydroxyacid oxidase 1 (HAO1), the equivalents of hGOX (Homo sapiens (Human), UniProt Q9UJM8); assay: In-vitro human glycolate oxidase (hGOX) assay (Amplex red fluorescence); assay type: biochemical; details: 6 nM recombinant human GO, 85 μM glycolate, 10 min preincubation
Summary of the method: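 Activity was read as Amplex Red fluorescence (560/590 nm), with 50 μM reagent added after a 10 min room-temperature incubation. The enzyme, full-length human HAO1, was in pH 7.4 HEPES buffer containing KCl, NaCl, MgCl2 and 0.01% Triton X-100.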

[2] = In-vivo pharmacokinetic evaluation (exposure, AUC fold-over Example 1); details: male CD-1 mice, 10 mg/kg oral gavage in 20% (2-Hydroxypropyl)-β-cyclodextrin, plasma at 0.5, 2 and 6 hours post-dose; AUC expressed as fold-over Example 1
Method: In-vivo exposure of test compounds was determined in 5-6 week old male CD-1 mice. Mice (n=2/compound) received 10 mg/kg of each compound formulated in 20% (2-Hydroxypropyl)-β-cyclodextrin (10 μL/g) by oral gavage. At 0.5 hours, 2 hours, and 6 hours post-dose, blood samples were collected from the submandibular vein using EDTA as an anticoagulant and stored on ice. Plasma samples were obtained by centrifugation at 4° C. and were analyzed immediately or stored at −20° C. until analysis. Compounds were extracted from mouse plasma with acetonitrile and quantified by LC-MS-MS in the negative ion mode using a standard curve.

Chain of recombinant full-length human hydroxyacid oxidase 1 (HAO1), the equivalents of hGOX (Q9UJM8 whole entry): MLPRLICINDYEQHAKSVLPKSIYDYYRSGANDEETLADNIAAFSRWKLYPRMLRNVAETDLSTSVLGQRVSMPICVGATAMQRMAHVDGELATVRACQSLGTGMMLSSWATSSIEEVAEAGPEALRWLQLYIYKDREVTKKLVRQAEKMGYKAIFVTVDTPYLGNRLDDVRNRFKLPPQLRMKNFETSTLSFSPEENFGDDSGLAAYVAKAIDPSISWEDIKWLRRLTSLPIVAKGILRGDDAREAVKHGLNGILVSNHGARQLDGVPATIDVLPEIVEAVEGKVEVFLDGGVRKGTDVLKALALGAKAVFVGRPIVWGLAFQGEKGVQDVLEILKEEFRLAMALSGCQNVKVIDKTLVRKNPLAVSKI

Row | Structure (SMILES) | IC50 [1] | AUC Fold over Ex. 1 [2]
1 | O=C(O)c1nn[nH]c1Oc1ccc(C#CC2CC2)cc1 [Example 20, 5-(4-(2-Cyclopropylethynyl)phenoxy)-1H-1,2,3-triazole-4-carboxylic Acid] | 11 nM | 0.8
2 | O=C(O)c1nn[nH]c1Oc1ccc(C#CC2CCC2)cc1 [Example 24, 5-(4-(2-Cyclobutylethynyl)phenoxy)-1H-1,2,3-triazole-4-carboxylic Acid] | 16 nM | 0.3
3 | O=C(O)c1nn[nH]c1Oc1cccc(C#CC2CCC2)c1 [Example 25, 5-(3-(2-Cyclobutylethynyl)phenoxy)-1H-1,2,3-triazole-4-carboxylic Acid] | 18 nM | 2.9
4 | CC(C)(C)C#Cc1ccc(Oc2[nH]nnc2C(=O)O)cc1 [Example 16, 5-(4-(3,3-Dimethylbut-1-ynyl)phenoxy)-1H-1,2,3-triazole-4-carboxylic Acid] | 210 nM | 0.2
5 | O=C(O)c1nn[nH]c1Oc1cccc(C#Cc2ccccc2)c1 [Example 139, 5-(3-(2-Phenylethynyl)phenoxy)-1H-1,2,3-triazole-4-carboxylic Acid] | 10 nM | 1.1
6 | O=C(O)c1nn[nH]c1Oc1cccc(C#CC2CCCC2)c1 [Example 29, 5-(3-(2-Cyclopentylethynyl)phenoxy)-1H-1,2,3-triazole-4-carboxylic Acid] | 10 nM | 2.5
7 | COc1ccc(C#Cc2ccc(Oc3[nH]nnc3C(=O)O)cc2)cn1 [Example 282, 5-(4-(2-(6-Methoxypyridin-3-yl)ethynyl)phenoxy)-1H-1,2,3-triazole-4-carboxylic Acid] | 3 nM | 0.5
8 | O=C(O)c1nn[nH]c1Oc1cccc(C#CC2CCOCC2)c1 [Example 41, 5-(3-(2-(Tetrahydro-2H-pyran-4-yl)ethynyl)phenoxy)-1H-1,2,3-triazole-4-carboxylic Acid] | 13 nM | 0.1
9 | CC(C)C#Cc1cccc(Oc2[nH]nnc2C(=O)O)c1 [Example 10, 5-(3-(3-Methylbut-1-ynyl)phenoxy)-1H-1,2,3-triazole-4-carboxylic Acid] | 28 nM | 1.6
10 | CC(C)(C)C#Cc1cccc(Oc2[nH]nnc2C(=O)O)c1 [Example 17, 5-(3-(3,3-Dimethylbut-1-ynyl)phenoxy)-1H-1,2,3-triazole-4-carboxylic Acid] | 42 nM | 1.3
11 | CC#Cc1cccc(Oc2[nH]nnc2C(=O)O)c1 [Example 6, 5-(3-(Prop-1-ynyl)phenoxy)-1H-1,2,3-triazole-4-carboxylic Acid] | 7 nM | 0.8
12 | O=C(O)c1nn[nH]c1Oc1cccc(C#CC2CC2)c1 [Example 21, 5-(3-(2-Cyclopropylethynyl)phenoxy)-1H-1,2,3-triazole-4-carboxylic Acid] | 9 nM | 2.5
13 | O=C(O)c1nn[nH]c1Oc1ccc(C#CC2CCCC2)cc1 [Example 28, 5-(4-(2-Cyclopentylethynyl)phenoxy)-1H-1,2,3-triazole-4-carboxylic Acid] | 18 nM | 0.3
14 | N#Cc1ccc(C#Cc2cc(Oc3[nH]nnc3C(=O)O)ccc2F)cc1 [Example 268, 4-(3-((4-Cyanophenyl)ethynyl)-4-fluorophenoxy)-1H-1,2,3-triazole-5-carboxylic Acid] | 1 nM | 0.3
15 | Cn1cc(C#Cc2cccc(Oc3[nH]nnc3C(=O)O)c2)cn1 [Example 221, 5-(3-(2-(1-Methyl-1H-pyrazol-4-yl)ethynyl)phenoxy)-1H-1,2,3-triazole-4-carboxylic Acid] | 1 nM | 0.1

Second part, the molecule after the results:

Row | IC50 [1] | AUC Fold over Ex. 1 [2] | Structure (SMILES)
16 | 21 nM | 0.7 | O=C(O)c1nn[nH]c1Oc1cccc(C#CC2CCC(F)(F)CC2)c1 [Example 347, 5-(3-(2-(4,4-Difluorocyclohexyl)ethynyl)phenoxy)-1H-1,2,3-triazole-4-carboxylic Acid]
17 | 2 nM | 0.3 | Cn1ncc2c(C#Cc3cccc(Oc4[nH]nnc4C(=O)O)c3)cccc21 [Example 315, 5-(3-(2-(1-Methyl-1H-indazol-4-yl)ethynyl)phenoxy)-1H-1,2,3-triazole-4-carboxylic Acid]
18 | 3 nM | 0.2 | O=C(O)c1nn[nH]c1Oc1cccc(C#Cc2cccnc2)c1 [Example 312, 5-(3-(2-(Pyridin-3-yl)ethynyl)phenoxy)-1H-1,2,3-triazole-4-carboxylic Acid]
19 | 12 nM | 1.6 | CCC#Cc1cccc(Oc2[nH]nnc2C(=O)O)c1 [Example 304, 5-(3-(But-1-ynyl)phenoxy)-1H-1,2,3-triazole-4-carboxylic Acid]
20 | 2 nM | 0.4 | O=C(O)c1nn[nH]c1Oc1cccc(C#Cc2nccs2)c1 [Example 342, 5-(3-(2-(Thiazol-2-yl)ethynyl)phenoxy)-1H-1,2,3-triazole-4-carboxylic Acid]
21 | 18 nM | 0.3 | O=C(O)c1nn[nH]c1Oc1ccc(C#CCC(F)(F)F)cc1 [Example 305, 5-(4-(4,4,4-Trifluorobut-1-ynyl)phenoxy)-1H-1,2,3-triazole-4-carboxylic Acid]
22 | 3 nM | 0.7 | O=C(O)c1nn[nH]c1Oc1cccc(C#CCC2CCCCC2)c1 [Example 346, 5-(3-(3-Cyclohexylprop-1-ynyl)phenoxy)-1H-1,2,3-triazole-4-carboxylic Acid]
23 | 5 nM | 0.1 | Cc1cccc(C#Cc2ccc(Oc3[nH]nnc3C(=O)O)cc2)n1 [Example 293, 5-(4-(2-(6-Methylpyridin-2-yl)ethynyl)phenoxy)-1H-1,2,3-triazole-4-carboxylic Acid]
24 | 8 nM | 2.6 | O=C(O)c1nn[nH]c1Oc1cccc(C#CCC2CCC2)c1 [Example 345, 5-(3-(3-Cyclobutylprop-1-ynyl)phenoxy)-1H-1,2,3-triazole-4-carboxylic Acid]
25 | 5 nM | 2.4 | O=C(O)c1nn[nH]c1Oc1cccc(C#CCc2ccc(F)cc2)c1 [Example 354, 5-(3-(3-(4-Fluorophenyl)prop-1-ynyl)phenoxy)-1H-1,2,3-triazole-4-carboxylic Acid]
26 | 16 nM | 0.7 | O=C(O)c1nn[nH]c1Oc1cccc(C#CCC(F)(F)F)c1 [Example 306, 5-(3-(4,4,4-Trifluorobut-1-ynyl)phenoxy)-1H-1,2,3-triazole-4-carboxylic Acid]
27 | 5 nM | 0.2 | COc1ccc(C#Cc2cccc(Oc3[nH]nnc3C(=O)O)c2)cn1 [Example 284, 5-(3-(2-(6-Methoxypyridin-3-yl)ethynyl)phenoxy)-1H-1,2,3-triazole-4-carboxylic Acid]
28 | 36 nM | 1.5 | CCC#Cc1ccc(Oc2[nH]nnc2C(=O)O)cc1 [Example 303, 5-(4-(But-1-ynyl)phenoxy)-1H-1,2,3-triazole-4-carboxylic Acid]
29 | 4 nM | 1.9 | O=C(O)c1nn[nH]c1Oc1cccc(C#CCC2CCCC2)c1 [Example 344, 5-(3-(3-Cyclopentylprop-1-ynyl)phenoxy)-1H-1,2,3-triazole-4-carboxylic Acid]
30 | 1 nM | 0.0 | O=C(O)c1nn[nH]c1Oc1cccc(C#Cc2ccc3[nH]ncc3c2)c1 [Example 307, 5-(3-(2-(1H-Indazol-5-yl)ethynyl)phenoxy)-1H-1,2,3-triazole-4-carboxylic Acid]
31 | 15 nM | 0.9 | CCCC#Cc1ccc(Oc2[nH]nnc2C(=O)O)cc1 [Example 299, 5-(4-(Pent-1-ynyl)phenoxy)-1H-1,2,3-triazole-4-carboxylic Acid]
32 | 4 nM | 1.7 | O=C(O)c1nn[nH]c1Oc1cccc(C#Cc2cccc3cn[nH]c23)c1 [Example 324, 5-(3-(2-(1H-Indazol-7-yl)ethynyl)phenoxy)-1H-1,2,3-triazole-4-carboxylic Acid]
33 | 1 nM | 0.2 | Cc1ccc(C#Cc2cccc(Oc3[nH]nnc3C(=O)O)c2)cn1 [Example 295, 5-(3-(2-(6-Methylpyridin-3-yl)ethynyl)phenoxy)-1H-1,2,3-triazole-4-carboxylic Acid]
34 | 9 nM | 2.5 | CCCC#Cc1cccc(Oc2[nH]nnc2C(=O)O)c1 [Example 300, 5-(3-(Pent-1-ynyl)phenoxy)-1H-1,2,3-triazole-4-carboxylic Acid]
35 | 4 nM | – | O=C(O)c1nn[nH]c1Oc1ccc(C#Cc2ccncc2)cc1 [Example 310, 5-(4-(2-(Pyridin-4-yl)ethynyl)phenoxy)-1H-1,2,3-triazole-4-carboxylic Acid]
36 | 0.3 nM | – | O=C(O)c1nn[nH]c1Oc1ccc(C#Cc2cccc(Cl)c2)cc1 [Example 291, 5-(4-(2-(3-Chlorophenyl)ethynyl)phenoxy)-1H-1,2,3-triazole-4-carboxylic Acid]
37 | 15 nM | 0.7 | O=C(O)c1nn[nH]c1Oc1ccc(C#CCC2CC2)cc1 [Example 301, 5-(4-(3-Cyclopropylprop-1-ynyl)phenoxy)-1H-1,2,3-triazole-4-carboxylic Acid]
38 | 10 nM | – | N#CCCC#Cc1cccc(Oc2[nH]nnc2C(=O)O)c1 [Example 350, 5-(3-(4-Cyanobut-1-ynyl)phenoxy)-1H-1,2,3-triazole-4-carboxylic Acid]
